Results reported in patent US20250017936A1, “CELL-POTENT BISUBSTRATE INHIBITORS FOR NICOTINAMIDE N-[…] (NNMT) AND USES THEREOF” (priority 2021, published 2025).
Where two headings read alike, the source gives them in different places.

Legend:
[1] = molecular target: T1, NNMT (Homo sapiens (Human), UniProt P40261); test: biochemical; format: biochemical
[2] = molecular target: T1, NNMT; test: Fluorescence polarization (FP)-based competition assay with probe II138; format: binding; settings: read-out: Ki (FP Assay)
[3] = SAHH-coupled Assay IC50, 10 μM SAM, 10 μM nicotinamide (Km), 0.1 μM NNMT

T1 sequence (P40261 whole entry): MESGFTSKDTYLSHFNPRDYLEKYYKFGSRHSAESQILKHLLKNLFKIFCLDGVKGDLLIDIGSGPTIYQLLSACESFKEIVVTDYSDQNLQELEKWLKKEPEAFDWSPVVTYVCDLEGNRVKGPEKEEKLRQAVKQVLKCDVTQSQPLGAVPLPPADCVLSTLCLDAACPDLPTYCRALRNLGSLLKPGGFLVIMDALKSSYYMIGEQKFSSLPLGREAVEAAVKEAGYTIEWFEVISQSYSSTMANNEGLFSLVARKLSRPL

| Structure (SMILES) | IC50 [1, 3] [nM] | Ki [2] [nM] | IC50 ([1]; 10 μM SAM, 10 μM nicotinamide (Km), 0.1 μM NNMT, read-out: SAHH-coupled Assay IC50) [nM] | IC50 ([1]; 10 μM SAM, 10 μM nicotinamide (Km), 0.1 μM NNMT, read-out: SAHH-coupled assay IC50) [nM] | Ki ([1]; read-out: Ki, app) [nM] | IC50 ([1]; substrate and SAM concentration at 4 Km, read-out: SAHH-coupled Assay IC50) [nM] |
| --- | --- | --- | --- | --- | --- | --- |
| CCN(CC#Cc1cccc(C(N)=O)c1)C[C@H]1C[C@@H](n2ccc3c(Cl)ncnc32)[C@H](O)[C@@H]1O [II542, 3-(3-((((1R,2R,3S,4R)-4-(4-chloro-7H-pyrrolo[2,3-d]pyrimidin-7-yl)-2,3dihydroxycyclopentyl)methyl)(ethyl)amino)prop-1-yn-1-yl)benzamide] | 7700 | – | – | – | – | – |
| CC(=O)N(CC#Cc1cccc(C(N)=O)c1)C[C@H]1C[C@@H](n2ccc3c(N)ncnc32)[C@H](O)[C@@H]1O [II642, 3-(3-(N-(((1R,2R,3S,4R)-4-(4-amino-7H-pyrrolo[2,3-d]pyrimidin-7-yl)-2,3-dihydroxycyclopentyl)methyl)acetamido)prop-1-yn-1-yl) benzamide] | – | 70 ± 8 | 25 ± 7 | 25 ± 7 | 4 ± 0.02 | 93 ± 7 |
| CC(=O)N(CC#Cc1cccc(C(N)=O)c1)C[C@H]1O[C@@H](n2cnc3c(N)ncnc32)[C@H](O)[C@@H]1O [II661, 3-(3-(N-(((2R,3S,4R,5R)-5-(6-amino-9H-purin-9-yl)-3,4-dihydroxytetrahydrofuran-2-yl)methyl)acetamido)prop-1-yn-1-yl)benzamide] | 7600 | – | – | – | – | – |
